In patent US11382907B2, “Methods and compositions for treating aging-associated impairments using CCR3-inhibitors” (Alkahest, Inc., priority 2017, dated 2022):
Entries after “also recorded” stand apart in the source; their conditions may differ.

Key:
blood eosinophils = test: Blood eosinophils in aged mice (FACS); type: in vivo, C57Bl/6 mice; details: 23-month-old mice, 30 mg/kg SQ BID 30 days, subset n=2, 5
Protocol: 200 uL of whole blood was collected during perfusion and shipped to Charles River Clinical Pathology Services (Shrewsbury, Mass.) for hematology analysis of eosinophil count by FACS (fluorescence activated cell sorter).
23-month-old C57Bl/6 mice were dosed with either vehicle control or Compound 1 subcutaneously twice daily for 30 days, and then sacrificed on the day of the last injection.
Treatment Groups: • Treatment Group 1a, Vehicle treatment: Aged C57Bl/6 mice (n=9), aged 23 months, received twice daily (BID) subcutaneous (SQ) treatment of vehicle solution for 30 days. • Treatment Group 3, Compound 1 treatment: Aged C57Bl/6 mice (n=18), aged 23 months, received twice daily (BID) subcutaneous (SQ) treatment of Compound 1, 30 mg/kg, for 30 days.

[1] = Pharmacokinetic profile after P.O. dosing (plasma concentration); type: in vivo; details: mouse, 30 mg/kg oral gavage, male 2-month-old C57Bl/6 mice, for 8 hours, read-out: plasma concentration of Compound 1 maintained for 8 hours
Protocol: Compound levels were measured by MS/MS by Quintara (Hayward, Calif.).
Plasma from male 2-month-old C57Bl/6 mice was measured for concentrations of Compound 1 at time points of 20 minutes, 2 hours, 8 hours, and 12 hours after oral gavage at 2 doses: 30 mg/kg and 150 mg/kg.

[2] = system: CD68+ activated microglia; test: IHC of CD68+ activated microglia in hippocampus of mice given daily LPS; type: in vivo, C57Bl/6 mice; details: 3-month-old mice, daily LPS IP 7 weeks, 30 mg/kg PO BID 4 weeks
Description: (§1) Mice were taken down on the day following the end of behavior testing. Anesthesia was induced by 2,2,2-tribromoethanol and mice were subsequently perfused with 0.9% saline trans-cardially. The brains were dissected and cut sagitally in two even halves. One half was snap frozen for later use in dry ice, and the other was fixed in 4% paraformaldehyde in PBS for use in immunohistochemistry. After two days of fixation, the hemibrains were transferred to a 30% sucrose in PBS solution and changed after two days. Hemibrains were sectioned at 30 um on a microtome at −22° C. Brain sections were stored in cryoprotectant media at −20° C. until needed for staining. Blocking was done on free floating sections in the appropriate serum at 10% serum in PBST 0.5%. Primary antibodies were incubated overnight at 4 C. For light microscopy, the following antibodies were used in the given concentrations: DCX, 1:200, Santa Cruz BioTech, CD68, 1:1000. AbD Serotec. Secondary biotinylated antibodies were applied the next day at a concentration of 1:300. Staining visualization was achieved by reaction with the ABC kit (Vector) and diaminobenzidine (Sigma). Dehydration of the mounted slides was achieved using ethanol and xylene dips. Images were acquired on a Leica light microscope at 5× magnification. […]

[3] = system: CD68+ activated microglia; test: IHC of CD68+ activated microglia in hippocampus of aged mice; type: in vivo, C57Bl/6 mice; details: 23-month-old mice, 30 mg/kg SQ BID 21 days
Description: Mice were taken down on the day following the end of behavior testing. Anesthesia was induced by 2,2,2-tribromoethanol and mice were subsequently perfused with 0.9% saline trans-cardially. The brains were dissected and cut sagitally in two even halves. One half was snap frozen for later use in dry ice, and the other was fixed in 4% paraformaldehyde in PBS for use in immunohistochemistry. After two days of fixation, the hemibrains were transferred to a 30% sucrose in PBS solution and changed after two days. Hemibrains were sectioned at 30 um on a microtome at −22° C. Brain sections were stored in cryoprotectant media at −20° C. until needed for staining. Blocking was done on free floating sections in the appropriate serum at 10% serum in PBST 0.5%. Primary antibodies were incubated overnight at 4 C. For light microscopy, the following antibodies were used in the given concentrations: DCX, 1:200, Santa Cruz BioTech, CD68, 1:1000. AbD Serotec. Secondary biotinylated antibodies were applied the next day at a concentration of 1:300. Staining visualization was achieved by reaction with the ABC kit (Vector) and diaminobenzidine (Sigma). Dehydration of the mounted slides was achieved using ethanol and xylene dips. Images were acquired on a Leica light microscope at 5× magnification.
23-month-old C57Bl/6 mice were dosed with either vehicle control or Compound 1 subcutaneously twice daily for 21 days. […]

[4] = system: inflammatory cytokines TNFa, IL6, IL1beta, IL5, IL17; test: Luminex assay of inflammatory cytokines in plasma of aged mice; type: in vivo, C57Bl/6 mice; details: 23-month-old mice, 30 mg/kg SQ BID 21 days
Protocol: Panels of circulating cytokines from mouse plasma were analyzed by Luminex. Luminex Assay Service performed by Eve Technologies (Calgary, Alberta, Canada).
23-month-old C57Bl/6 mice were dosed with either vehicle control or Compound 1 subcutaneously twice daily for 21 days. Three weeks later, mice were subjected to behavior testing, and sacrificed the day following the last behavior test.
Treatment Groups: • Treatment Group 1b, Vehicle treatment: Aged C57Bl/6 mice (n=9), aged 23 months, received twice daily (BID) subcutaneous (SQ) treatment of vehicle solution for 21 days. • Treatment Group 4, Compound 1 treatment: Aged C57Bl/6 mice (n=17), aged 23 months, received twice daily (BID) subcutaneous (SQ) treatment of Compound 1, 30 mg/kg, for 21 days.

[5] = system: CD68+ activated microglia; test: CD68+ activated microglia after one dose of LPS; type: in vivo, C57 mice; details: 3-month-old mice; one dose LPS 10 mg/kg IP; 30 mg/kg BID oral gavage 18 days
Description: as §1

Cc1cc(C(=O)N(C)C)cc(NC(=O)[C@H]2CCC(=O)N2C2CCN(Cc3ccc(Cl)c(C)c3)CC2)n1 [Compound 1]
blood eosinophils (percentage of WBC count) (blood eosinophils): strong trend towards decreased blood eosinophils; also recorded: decreased an endogenous age-related increase in blood eosinophils | concentration at 8 hours [1]: > 100 nM | CD68+ immunoreactivity (activated microglia) in hippocampus [2]: dramatically decreased CD68+ immunoreactivity; also recorded: robust trend towards decrease | CD68+ activated microglia in the hippocampus [3]: strong trend towards decreased microgliosis; also recorded: trend lower | plasma IL1beta level [4]: strong trends in decrease; also recorded: trend lower | plasma IL5 level [4]: strong trends in decrease; also recorded: trend lower | plasma IL6 level [4]: strong trends in decrease; also recorded: trend lower | plasma IL17 level [4]: strong trends in decrease; also recorded: trend lower | plasma TNFa level [4]: strong trends in decrease; also recorded: trend lower | CD68+ immunoreactivity (activated microglia) in brain [5]: significantly decreased CD68+ immunoreactivity
